Assay results reported in patent US20140005181A1, “SMALL MOLECULE ANTAGONISTS OF THE APELIN RECEPTOR FOR THE TREATMENT OF DISEASE” (Sanford-Burnham Medical Research Institute, priority 2012, published 2014).
Where “and” joins values, the source holds several entries; their conditions need not be identical. Equal values may be shown once.

Experiments:
[1] = target: T1, APJ (Homo sapiens, UniProt P35414); experiment: APJ DiscoveRx PathHunter β-arrestin assay (antagonism of apelin-13); format: cell-based; design: host or cells: Angiotensin II receptor-like 1 (AGTRL-1) Cell Line (PathHunter); conditions: for IC50: β-arrestin assay, n = 4 unless noted in parentheses, read-out: APJ Potency IC50 (μM) Ave. ± S.E.M.
T1 sequence (P35414 1-380): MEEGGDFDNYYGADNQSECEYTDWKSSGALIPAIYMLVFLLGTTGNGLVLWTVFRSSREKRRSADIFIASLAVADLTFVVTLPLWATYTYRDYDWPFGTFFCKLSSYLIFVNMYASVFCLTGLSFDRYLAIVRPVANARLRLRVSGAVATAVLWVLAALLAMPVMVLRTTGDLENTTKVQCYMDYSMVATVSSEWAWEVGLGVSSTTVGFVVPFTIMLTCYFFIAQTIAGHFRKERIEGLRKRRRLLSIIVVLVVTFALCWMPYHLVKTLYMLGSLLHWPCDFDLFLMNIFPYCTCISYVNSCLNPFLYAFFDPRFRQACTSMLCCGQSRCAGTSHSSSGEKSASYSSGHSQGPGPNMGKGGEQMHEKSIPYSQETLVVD
Procedure: The assay was incubated for 90 mins at room temperature, and then developed with 3 μL of detection reagent (PathHunter Detection Reagents (DiscoveRx, Cat#93-0001)) for 60 mins and luminescence read on a Perkin Elmer ViewLux.
(§1) All assays in Table 2, with the exception of the […] counterscreen, utilize the DiscoveRx PathHunter® β-arrestin assay technology. Unlike imaging or other second messenger assays, the DiscoveRx β-arrestin assay allows for a direct measure of GPCR activation by detection of β-arrestin binding to the APJ, and in the case of the counterscreen, the AT1 receptor. […] In cells that stably express these fusion proteins, ligand stimulation results in the interaction of β-arrestin and the ProLink-tagged GPCR, forcing the complementation of the two β-galactosidase fragments and resulting in the formation of a functional enzyme that converts substrate to detectable luminescent signal.
Assay was incubated for 90 mins at room temperature, and then developed with 3 μL of detection reagent for 60 mins and luminescence read on a Perkin Elmer ViewLux. Initial actives were retested in duplicate at the 20 μM test concentration, and reconfirmed hits retested in full dose-response for compounds from resupplied MLSMR DMSO stock solutions.

[2] = target: T2, Angiotensin receptor 1 (AT1) (Homo sapiens, UniProt P30556); experiment: AT1 DiscoveRx PathHunter β-arrestin counterscreen (antagonism of angiotensin II); format: cell-based; conditions: β-arrestin assay, n = 4 unless noted in parentheses; read-out: AT1 Potency IC50 (μM) Ave. ± S.E.M.
T2 construct: host or cells: Angiotensin receptor 1 (AT1) Cell Line (PathHunter)
T2 sequence (P30556 1-359): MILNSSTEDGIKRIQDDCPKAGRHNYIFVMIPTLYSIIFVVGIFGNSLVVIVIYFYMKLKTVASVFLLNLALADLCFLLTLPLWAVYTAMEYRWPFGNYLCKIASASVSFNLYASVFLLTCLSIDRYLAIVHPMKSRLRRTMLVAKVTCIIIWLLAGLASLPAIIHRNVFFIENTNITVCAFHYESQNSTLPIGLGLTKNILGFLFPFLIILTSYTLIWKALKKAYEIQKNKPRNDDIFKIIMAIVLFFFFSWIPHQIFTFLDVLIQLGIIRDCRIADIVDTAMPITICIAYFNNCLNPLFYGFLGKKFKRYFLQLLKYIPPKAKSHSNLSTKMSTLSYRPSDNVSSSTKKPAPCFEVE
Description: as §1
Next, varying volumes of stock test compounds in DMSO were transferred to each well to achieve appropriate dose response concentrations and range. DMSO was backfilled into each test compound well to a total volume of 80 nL to achieve equal concentration of DMSO in all wells. This was followed by an addition of 1 μL of 300 nM reference agonist, Angiotensin II, to the negative and test compound wells, and 1 μL of assay media to positive control wells. The assay was incubated for 90 mins at room temperature, and then developed with 3 μL of detection reagent for 60 mins and luminescence read on a Perkin Elmer ViewLux.

IC50 [1]	IC50 [2] [µM]	SI = Selectivity Index: (IC50 AT1)/(IC50 APJ) [1]	Structure (SMILES)
39.9 ± 8.65 µM			Cc1ccnc(SCc2cc(=O)c(OC(=O)c3ccc(S(=O)(=O)N4CCCC4)cc3)co2)n1 [Compound 39]
> 79 µM	> 79		Cc1cccc(C(=O)Oc2coc(CSc3nccc(C)n3)cc2=O)c1 [Compound 44]
25.3 ± 5.8 µM	> 79	>3	Cc1cc(C)nc(SCc2cc(=O)c(OC(=O)c3ccc(C)c([N+](=O)[O-])c3)co2)n1 [Compound 50]
	> 79		Cc1ccnc(SCc2cc(=O)c(OC(=O)c3ccccc3Cl)co2)n1 [Compound 42]
> 79 µM	> 79		O=c1cc(CSc2ccccc2)occ1O [Compound 56]
58.8 µM			Cc1ccnc(SCc2cc(=O)c(OC(=O)c3cc(Cl)ccc3[N+](=O)[O-])co2)n1 [Compound 40]
20.6 µM			Cc1ccnc(SCc2cc(=O)c(OC(=O)c3ccc(C(F)(F)F)cc3)co2)n1 [Compound 35]
> 79 µM	49.7 ± 6.74		Cc1cc(C)nc(SCc2cc(=O)c(OC(=O)c3cc(Cl)ccc3[N+](=O)[O-])co2)n1 [Compound 52]
> 79 µM	> 79		O=c1cc(CSc2ncccn2)occ1O [Compound 58]
44.5 µM	49.7 ± 6.74		Cc1cc(C)nc(SCc2cc(=O)c(OC(=O)c3cc([N+](=O)[O-])ccc3Cl)co2)n1 [Compound 53]
74.1 µM			Cc1ccnc(SCc2cc(=O)c(OC(=O)c3cc([N+](=O)[O-])ccc3Cl)co2)n1 [Compound 41]
> 79 µM	> 79		Cc1cc(C)nc(SCc2cc(=O)c(OC(=O)c3ccc(S(=O)(=O)N(C)C)cc3)co2)n1 [Compound 51]
> 79 µM	> 79		Cc1ccnc(SCc2cc(=O)c(OC(=O)c3ccccc3C)co2)n1 [Compound 46]
> 79 µM	> 79		Cc1cc(C)nc(SCc2cc(=O)c(OC(=O)c3ccc(-c4nccs4)cc3)co2)n1 [Compound 55]
5.45 ± 1.47 µM	> 79	>15	Cc1cc(C)nc(SCc2cc(=O)c(OC(=O)c3ccc(Cl)c([N+](=O)[O-])c3)co2)n1 [Compound 49]
3.11 µM and 4.32 µM		>25 and >23	Cc1ccnc(SCc2cc(=O)c(OC(=O)c3ccc([N+](=O)[O-])cc3)co2)n1 [Compound 33]
> 79 µM	> 79		Cc1cc(C)nc(SCc2cc(=O)c(OC(=O)c3cccc([N+](=O)[O-])c3C)co2)n1 [Compound 54]
> 79 µM	> 79		O=c1cc(CSc2ccc(F)cc2)occ1O [Compound 57]
8.51 µM and 11.5 µM		>9 and >7	Cc1ccnc(SCc2cc(=O)c(OC(=O)c3ccc(C#N)cc3)co2)n1 [Compound 34]

Further lines, the molecule ahead of its results:

Structure (SMILES)	IC50 [1]	IC50 [2] [µM]	SI = Selectivity Index: (IC50 AT1)/(IC50 APJ) [1]
Cc1ccnc(SCc2cc(=O)c(NC(=O)c3ccccc3)co2)n1 [Compound 73]	> 79 µM	> 79	
O=C(Oc1coc(CSc2ncccn2)cc1=O)c1cc([N+](=O)[O-])ccc1Cl [Compound 21]	51 µM	60.1 ± 1.35	
Cc1cc(C)nc(SCc2cc(=O)c(OS(=O)(=O)c3ccccc3)co2)n1 [Compound 71]	> 79 µM	> 79	
Cc1ccnc(SCc2cc(=O)c(OC(=O)c3cccc([N+](=O)[O-])c3)co2)n1 [Compound 31]	59.2 µM		
O=C(Oc1coc(CSc2ncccn2)cc1=O)c1cccc([N+](=O)[O-])c1 [Compound 4]	75.7 µM		
O=C(Oc1coc(CSc2ncccn2)cc1=O)c1ccc(Cl)c([N+](=O)[O-])c1 [Compound 2]	6.2 ± 0.77 µM		>13
Cc1ccnc(SCc2cc(=O)c(OC(=O)c3ccsc3)co2)n1 [Compound 76]	> 79 µM	> 79	
Cc1ccc(C(=O)Oc2coc(CSc3ncccn3)cc2=O)cc1[N+](=O)[O-] [Compound 3]	7.25 µM and 10.9 µM		>11 and >7.2
Cc1ccnc(SCc2cc(=O)c(OC(=O)C(C)(C)C)co2)n1 [Compound 68]	> 79 µM	> 79	
N#Cc1ccc(C(=O)Oc2coc(CSc3ncccn3)cc2=O)cc1 [Compound 7]	6.59 µM and 9.77 µM	> 79	>12 and >8
Cc1cc(C)nc(SCc2cc(=O)c(OS(=O)(=O)c3ccc([N+](=O)[O-])cc3)co2)n1 [Compound 72]	> 79 µM	> 79	
Cc1c(C(=O)Oc2coc(CSc3ncccn3)cc2=O)cccc1[N+](=O)[O-] [Compound 22]	72.2 µM		
Cc1ccnc(SCc2cc(=O)c(OC(=O)c3ccco3)co2)n1 [Compound 75]	> 79 µM	> 79	
O=C(Oc1coc(CSc2ccc(Cl)cc2)cc1=O)c1ccc(Cl)c([N+](=O)[O-])c1 [Compound 63]	4.53 ± 0.66 µM	> 79	>17
O=C(Oc1coc(CSc2ncccn2)cc1=O)c1ccc(Br)cc1 [Compound 9]	18.2 µM		
Cc1ccnc(SCc2cc(=O)c(OC(=O)c3ccc([N+](=O)[O-])o3)co2)n1 [Compound 77]	> 79 µM	> 79	
O=C(Oc1coc(CSc2ncccn2)cc1=O)c1ccc(C(F)(F)F)cc1 [Compound 8]	29 µM		
O=C(Oc1coc(CSc2ncccn2)cc1=O)c1ccc(Cl)cc1 [Compound 5]	54.5 µM		
Cc1ccnc(SCc2cc(=O)c(OCc3ccc(Cl)c([N+](=O)[O-])c3)co2)n1 [Compound 67]	> 79 µM	> 79	
Cc1ccnc(SCc2cc(=O)c(OC(=O)c3cnco3)co2)n1 [Compound 78]	> 79 µM	> 79	
Cc1ccnc(SCc2cc(=O)c(OC(=O)c3ccc(C)c([N+](=O)[O-])c3)co2)n1 [Compound 30]	4.7 µM		>17
Cc1ccnc(SCc2cc(=O)c(NC(=O)c3ccc([N+](=O)[O-])cc3)co2)n1 [Compound 74]	> 79 µM	> 79	
Cc1ccnc(SCc2cc(=O)c(OCc3ccccc3)co2)n1 [Compound 66]	> 79 µM	> 79	
